Test results reported in patent publication US20160045487A1, “COMPOSITIONS AND METHODS FOR TREATING NEUROPATHY” (CHILDEREN'S MEDICAL CENTER CORPORATION, priority 2013, published 2016).

What was measured:
[1] = test system: GFAP-DN-erbB4 and wild type mice; assay: Mechanical sensitivity (von Frey filaments); type: in vivo, mouse; details: after 4 weeks topical treatment, cream 1.5 mM
Experimental: As a first test, a cream containing XIB4035 (1.5 mM) was applied directly to the hind paws of GFAP-DN-erbB4 and wild type mice twice daily for a period of 4 weeks starting prior to symptom onset (P21). Mice of both genotypes were also treated with the base cream containing no drug for control. Mice were tested for responses to a noxious thermal stimulus prior to the initiation of treatment and every 7 days for the duration of the experiment.
Mechanical sensitivity was tested by simulation of the plantar surface of the hind paw with a series of von Frey filaments while the animal was placed on an elevated wire grid. The threshold was determined as the lowest force that evoked a visible withdrawal response. The use of animals was approved by the Animal Care and Use Committee of Children's Hospital Boston.

GFAP-DN-erbB4 mice = assay: PGP9.5-positive IENF density in hind paw skin; type: in vivo, mouse; details: treatment initiated after disease onset (P28), read at P35
Experimental: However, in the clinic, therapy would almost certainly begin after patients present with symptoms of SFN. Therefore, it was determined whether topical XIB4035 can act as a disease-modifying agent in the GFAP-DN-erbB4 neuropathy model starting after animals are clearly symptomatic (P28). […] While IB4 labeling in mutant mice was lower than wild types regardless of treatment, IB4 signal was clearly present in mutant mice treated with XIB4035 while absent in those treated with control cream (FIG. 3D; 83% of XIB4035 treated mice (n=6) with IB4+ lamina II terminals vs 0% (n=4) in control treated mice) (FIG. 3D).
Mice were anesthetized with 2.5% Avertin. Hind paws were removed, immersion fixed in 2% paraformaldehyde, 14% picric acid in 0.1 M phosphate buffer (pH 7.4) overnight at 4° C., and cryoprotected in 20% sucrose overnight at 4° C. Footpad skin was dissected from hind paws, embedded in OCT, sectioned at 30 μm, and stained as floating sections. […]
Skin section images were acquired as 30 μm Z-stacks (1 μm intervals) and processed as maximum intensity projections using a Zeiss LSM 700 microscope and ZEN software. […] A measured line was drawn using the DAPI channel to delineate the border between basal keratinocytes and outer layers of the epidermis. All PGP9.5 positive IENFs crossing the border were counted and expressed as a number per 100 μm length. […]

GFRα1/RET = target: T1, GFRα1/RET (UniProt P35546+Q62997); assay: RET phosphorylation in N2A cells transfected with GFRα1; type: cell-based, rat GFRα1 in murine N2A cells
T1 construct: N2A cells (which express RET) transfected with GFRα1 or GFRα3 expression constructs; expressed in transfected cells; host or cells: Neuro2A (N2A) cells; GFRα1 plasmid was a gift from Dr. Milbrandt; RET is endogenous
Experimental: (§1) Since the original report argued that XIB4035 displaces GDNF binding to GFRα1 expressing cells (FIG. 2 in Tokugawa et al., Neurochem Int 42, 81-86 (2003).), potentially ARTN, on TH-luciferase activity and Ret phosphorylation. […] In this experiment, cells were treated with GDNF or ARTN with or without XIB4035 for 10 minutes and cell lysates were either collected immediately or treatment was washed out and replaced with growth media for 30, 60, or 120 minutes. […] Therefore, we tested cells expressing only one GFRα using either N2A cells (which express RET) transfected with GFRα1 or GFRα3 expression constructs, or B(E)2-C cells, which express only GFRα2 together with RET. […] The GFRα1 or GFRα3 transfected N2A cells were then treated with XIB4035 alone, the appropriate ligand for the expressed receptor alone, or XIB4035 and ligand in combination for 10 minutes, and collected lysates immediately after treatment or 60 minutes after washout. […] Similar results were obtained with GFRα2 and NRTN using B(E)2-C cells (FIG. 8). Thus, XIB4035 is a positive modulator of signaling by GDNF family ligands and their receptors, not an agonist for GFRα1 as previously reported.
(§2) For phosphorylated Ret immunoblot experiments, cells were treated with various combinations of molecules for 10 minutes and either collected immediately or had treatment washed out and returned to control treatment media for the times indicated prior to cell collection. Lysates were collected in buffer containing: 50 mM Tris-HCL, 1% TX-100, 0.25% Deoxycholic acid, 150 mM sodium chloride, 1 mM EDTA, 0.1 mM sodium fluoride, 0.1 mM sodium pyrophosphate, 0.02 mM sodium orthovanadate, and protease inhibitors Immunoblots were blocked in 5% bovine serum albumin in tris-buffered saline+0.2% Tween 20+0.1 mM sodium fluoride, 0.1 mM sodium pyrophosphate, and 0.02 mM sodium orthovanadate and probed in blocking solution using anti-phospotyrosine (4G10) mouse monoclonal antibody (1:2000; EMD Milipore Corp., Billerica, Mass.). […]

GFRα3/RET = target: T2, GFRα3/RET (UniProt O60609+P35546); assay: RET phosphorylation in N2A cells transfected with GFRα3; type: cell-based, human GFRα3 in murine N2A cells
T2 construct: N2A cells (which express RET) transfected with GFRα1 or GFRα3 expression constructs; expressed in transfected cells; host or cells: Neuro2A (N2A) cells; GFRα3 plasmid was a gift from Dr. Milbrandt; RET is endogenous
Experimental: as §1, §2

[2] = XIB4035 and ligand co-treatment, 60 minutes after washout

T1 sequence (Q62997 25-430 limits assumed): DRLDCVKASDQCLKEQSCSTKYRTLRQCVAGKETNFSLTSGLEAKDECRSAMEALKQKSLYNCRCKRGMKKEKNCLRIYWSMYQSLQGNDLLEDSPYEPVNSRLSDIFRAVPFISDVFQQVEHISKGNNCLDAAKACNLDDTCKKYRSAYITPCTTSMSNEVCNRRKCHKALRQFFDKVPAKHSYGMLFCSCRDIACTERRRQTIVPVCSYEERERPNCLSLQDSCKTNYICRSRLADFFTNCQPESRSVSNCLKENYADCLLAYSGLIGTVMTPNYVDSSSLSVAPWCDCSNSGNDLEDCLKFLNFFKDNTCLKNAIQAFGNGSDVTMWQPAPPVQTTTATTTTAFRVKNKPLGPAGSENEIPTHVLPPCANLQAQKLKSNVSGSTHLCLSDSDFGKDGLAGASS
T1 sequence (P35546 29-1115): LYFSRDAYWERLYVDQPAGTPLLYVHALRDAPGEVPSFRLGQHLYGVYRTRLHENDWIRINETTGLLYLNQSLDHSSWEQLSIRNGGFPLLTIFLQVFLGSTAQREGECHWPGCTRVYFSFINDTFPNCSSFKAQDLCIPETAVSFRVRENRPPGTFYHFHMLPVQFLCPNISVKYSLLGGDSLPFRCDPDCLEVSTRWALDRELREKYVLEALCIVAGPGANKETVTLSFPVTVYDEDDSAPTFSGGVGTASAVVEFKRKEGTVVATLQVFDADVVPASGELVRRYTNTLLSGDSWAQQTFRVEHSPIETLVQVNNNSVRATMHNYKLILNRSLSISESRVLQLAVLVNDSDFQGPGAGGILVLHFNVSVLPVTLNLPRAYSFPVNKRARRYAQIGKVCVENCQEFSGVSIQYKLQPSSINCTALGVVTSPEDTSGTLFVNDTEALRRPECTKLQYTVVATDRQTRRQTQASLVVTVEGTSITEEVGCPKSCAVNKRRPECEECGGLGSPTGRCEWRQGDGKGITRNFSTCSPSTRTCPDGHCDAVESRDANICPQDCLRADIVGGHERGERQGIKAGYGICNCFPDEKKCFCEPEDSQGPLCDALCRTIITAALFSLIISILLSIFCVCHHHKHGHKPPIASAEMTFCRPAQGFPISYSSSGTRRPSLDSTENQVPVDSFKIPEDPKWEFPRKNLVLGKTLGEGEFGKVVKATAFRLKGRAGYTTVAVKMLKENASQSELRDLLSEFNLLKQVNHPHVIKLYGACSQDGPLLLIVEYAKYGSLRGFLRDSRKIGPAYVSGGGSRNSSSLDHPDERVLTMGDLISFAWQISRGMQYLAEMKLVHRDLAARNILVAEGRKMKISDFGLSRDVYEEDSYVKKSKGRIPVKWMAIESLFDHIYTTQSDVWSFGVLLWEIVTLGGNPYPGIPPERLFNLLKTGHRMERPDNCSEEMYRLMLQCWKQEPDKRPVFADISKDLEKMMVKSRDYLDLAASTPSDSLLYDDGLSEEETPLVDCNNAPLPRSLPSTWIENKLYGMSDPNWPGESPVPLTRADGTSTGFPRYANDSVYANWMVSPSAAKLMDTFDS
T2 sequence (O60609 32-374 limits assumed): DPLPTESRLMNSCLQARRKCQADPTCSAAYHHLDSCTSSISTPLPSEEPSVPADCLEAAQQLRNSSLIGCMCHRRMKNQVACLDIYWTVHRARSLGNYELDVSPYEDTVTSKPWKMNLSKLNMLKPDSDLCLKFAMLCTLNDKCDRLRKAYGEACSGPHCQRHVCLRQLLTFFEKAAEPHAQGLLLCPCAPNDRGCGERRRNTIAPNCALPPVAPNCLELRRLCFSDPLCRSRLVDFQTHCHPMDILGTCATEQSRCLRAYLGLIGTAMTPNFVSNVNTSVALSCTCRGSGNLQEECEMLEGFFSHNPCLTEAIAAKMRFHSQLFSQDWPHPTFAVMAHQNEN
T2 sequence (P35546 29-1115): as the sequence (P35546 29-1115) above

CCN(CC)CCCC(C)Nc1cc(/C=C/c2ccccc2Cl)nc2cc(Cl)ccc12 (stereo not drawn) [XIB4035, N4-{7-chloro-2-[(E)-2-(2-chloro-phenyl)-vinyl]-quinolin-4-yl}-N1,N1-diethyl-pentane-1,4-diamine]
effect on mechano-reception (response thresholds to mechanical stimuli) [1]: no effect
IENF density in hind paw skin (GFAP-DN-erbB4 mice): did not rescue IENF density
induction of RET phosphorylation (GFRα1/RET; XIB4035 alone, 10 minutes): did not induce RET phosphorylation
RET phosphorylation at the 60 min time-point compared to ligand alone (GFRα1/RET; [2]): clearly prolonged
induction of RET phosphorylation (GFRα3/RET; XIB4035 alone, 10 minutes): did not induce RET phosphorylation
RET phosphorylation at the 60 min time-point compared to ligand alone (GFRα3/RET; [2]): clearly prolonged
